# Source: PubChem BioAssay (NCI)
#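 The compound was tested at five concentrations on cells cultured in 96-well plates, with a 48-hour exposure period. GI50 = concentration required for 50% inhibition of growth. TGI denotes the concentration required for complete inhibition of growth.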
# What was measured:
# Test in all cases: NCI tumour cell line growth inhibition, 48 h
# DLD-1 colon = system: DLD-1 colon
# DMS 114 small cell lung = system: DMS 114 small cell lung
# HCT-116 colon = system: HCT-116 colon
# LXFL 529 NSCLC = system: LXFL 529 NSCLC
# SF-539 CNS = system: SF-539 CNS
# SK-MEL-5 melanoma = system: SK-MEL-5 melanoma
# XF 498 CNS = system: XF 498 CNS
# A498 renal = system: A498 renal
# MDA-MB-231 breast = system: MDA-MB-231 breast
# MDA-MB-435 = system: MDA-MB-435
# MDA-N = system: MDA-N
# T-47D breast = system: T-47D breast
# BT-549 breast = system: BT-549 breast
# P388 leukemia = system: P388 leukemia
# P388/ADR leukemia = system: P388/ADR leukemia
Structure (SMILES),TGI (DLD-1 colon),TGI (DMS 114 small cell lung),TGI (HCT-116 colon),TGI (LXFL 529 NSCLC),TGI (SF-539 CNS),TGI (SK-MEL-5 melanoma),TGI (XF 498 CNS),TGI (A498 renal),TGI (MDA-MB-231 breast),TGI (MDA-MB-435),TGI (MDA-N),TGI (T-47D breast),TGI (BT-549 breast),TGI (P388 leukemia),TGI (P388/ADR leukemia),GI50 (MDA-MB-231 breast),GI50 (MDA-MB-435),GI50 (SF-539 CNS),GI50 (SK-MEL-5 melanoma),GI50 (T-47D breast)
CC1(C)CCCC2(C)[C@@H]1CC[C@]13C[C@](C)(CC[C@@H]21)[C@@H]3CO (some centres not stated),> 100 µM,> 100 µM,> 100 µM,> 100 µM,> 100 µM,> 100 µM,> 100 µM,,,,,,,,,,,,,
CCOC(=O)c1csc(NC(=O)CCN2CCOCC2)n1,,,,,> 100 µM,> 100 µM,,> 100 µM,> 100 µM,> 100 µM,> 100 µM,> 100 µM,,,,,,,,
COc1ccc2c(c1)C(=O)/C(=C/c1ccccc1)C2,,,,,,> 100 µM,,> 100 µM,,> 100 µM,> 100 µM,,> 100 µM,,,,,,,
CCNc1nc2c(=O)n(C)c(=O)n(C)c2s1,> 100 µM,,> 100 µM,> 100 µM,> 100 µM,,> 100 µM,> 100 µM,,,,,,,,,,,,
C=C1CC2(C)CCC(OC(=O)C3(C)OC3C)C(C)(OC(C)=O)C2CC1=C(C)C (configuration not stated),,,> 100 µM,,> 100 µM,> 100 µM,,> 100 µM,> 100 µM,> 100 µM,> 100 µM,> 100 µM,> 100 µM,,,,,,,
CC12CCC3C(CCC4(O)C=CCCC34C=O)C1(O)CC(O)C2c1ccc(=O)oc1 (configuration not stated),0.098 µM,,0.22 µM,,0.0735 µM,0.0887 µM,0.158 µM,0.253 µM,,,,,,500 µM,> 500 µM,,,,,
O=c1n(Cc2ccccc2)c2ccccc2n1CC1CS1 (configuration not stated),,> 100 µM,> 100 µM,> 100 µM,> 100 µM,,> 100 µM,,,,,,,,,,,,,
COc1cc(CN(C)N2C(=O)c3cccc4cc([N+](=O)[O-])cc(c34)C2=O)cc(OC)c1OC,,,,,,> 100 µM,,> 100 µM,> 100 µM,> 100 µM,> 100 µM,> 100 µM,> 100 µM,,,,,,,
O=C1CNC(=O)N1,> 1120 µM,> 1120 µM,> 1120 µM,,> 1120 µM,> 1120 µM,> 11.2 µM,> 1120 µM,,,,,,> 520 µM,> 630 µM,,,,,
O=C(NC/C=C/CO)c1ccccc1,> 100 µM,> 100 µM,> 100 µM,,> 100 µM,> 100 µM,> 100 µM,> 100 µM,,,,,,> 100 µM,> 100 µM,,,,,
Cc1cc(C)c(S(=O)(=O)N(CCCCCCN)OCCCON(CCCCCCN)S(=O)(=O)c2c(C)cc(C)cc2C)c(C)c1,,,3.08 µM,,3.98 µM,,,3.02 µM,3.21 µM,3.99 µM,3.61 µM,,3.26 µM,,,,,,,
ClCc1nnc2n1-c1ccc(Cl)cc1SC2,,9.58 µM,12.7 µM,,13.2 µM,9.49 µM,20 µM,16.1 µM,,,,,,4.24 µM,> 25.2 µM,,,,,
Fc1cc(C2=Nn3c(nnc3-c3cc(F)c(Cl)cc3Cl)SC2)c(Cl)cc1Cl,,,,,38 µM,30.3 µM,,,34.5 µM,83.2 µM,,32.5 µM,,,,13.4 µM,27.8 µM,18.9 µM,13.4 µM,4.93 µM
